We go through eight compounds from the supplement of paper PMC11061612.

In assay [1] the test system is SK-HEP-1 (Hepatocellular Carcinoma). The assay can be described thus: Bliss excess, mean over the matrix (fraction); higher = more synergy. The method in brief: (§1)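 After 24 hours at 37°C and 5% CO2 in 1536-well plates, cells in DMEM/F12 or RPMI plus 10% FBS received two-drug dose matrices for 72 hours. Viability came from CellTiter-Glo 2.0 luminescence and was scaled as inhibition, anchored at 0 by vehicle wells and at 1 by blank wells. Combination Emax is taken as the second-highest inhibition in the matrix, and Bliss excess as the observed combination effect less EA + EB − EA·EB, with EA and EB the single-agent effects.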

Assay [2] has as its system UACC-812 (Breast Carcinoma). Described as above. The method in brief:
as §1

Assay [3] relates to CGTH-W-1 (Thyroid Gland Carcinoma). Described as above. In outline:
as §1

In assay [4] the test system is A2780 (Ovarian Carcinoma). The description is as above. In outline:
as §1

The subject of assay [5] is NCI-H441 (Lung Adenocarcinoma). Described as above. The method in brief:
as §1

The test system of assay [6] is MHH-ES-1 (Ewing's Sarcoma). The description is as above. In outline: as §1
Assay [7] has as its system SW620 (Colorectal Carcinoma). The assay is described as above. In outline:
as §1

Assay [8] relates to LU-165 (Small Cell Lung Carcinoma). The assay is described as above. The method in brief: as §1
The test system of assay [9] is JHH-2 (Hepatocellular Carcinoma). The description is as above. The method in brief:
as §1

Assay [10] has as its system HCC70 (Breast Carcinoma). Described as above. In outline:
as §1

For assay [11], the system named is EB2 (Burkitt's Lymphoma). The assay is described as above. The method in brief:
as §1

Assay [12] deals with 22RV1 (Prostate Carcinoma). The description is as above. The method in brief: as §1
The test system of assay [13] is HCC1395 (Breast Carcinoma). The description is as above. In outline:
as §1

The subject of assay [14] is PEO1 (Ovarian Carcinoma). The description is as above. The method in brief:
as §1

For assay [15], the system named is MDA-MB-436 (Breast Carcinoma). The description is as above. In outline: as §1
In assay [16] the test system is NCI-H1703 (Squamous Cell Lung Carcinoma). Described as above. In outline:
as §1

Assay [17] concerns WM1552C (Melanoma). The assay is described as above. The method in brief: as §1
Assay [18] deals with KYSE-220 (Esophageal Squamous Cell Carcinoma). The assay can be described thus: combination Emax (second highest fraction inhibited in the dose matrix, 72 h); higher = more inhibition; extreme values may be limits of the assay. The method in brief:
as §1

The test system of assay [19] is PEO1 (Ovarian Carcinoma). Described as above. The method in brief:
as §1

Assay [20] concerns MDA-MB-436 (Breast Carcinoma). Described as above. The method in brief:
as §1
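For Bliss excess, mean over the matrix in this document: after 72 h of two-drug dosing.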

For the compound `Cc1cc2ncnn2cc1Nc1ncc2c(n1)n(C1CCOCC1)c(=O)n2C` [AZD7648] + CCN(CCO)CCCOc1ccc2c(Nc3cc(CC(=O)Nc4cccc(F)c4)[nH]n3)ncnc2c1 [AZD2811] (first compound max 10 µM, 7x7, partner max 1 µM), the Bliss excess in [1] was 0.0517; in assay [2], 0.0276; in [3], 0.0363; in assay [4], 0.0122; in [5], -0.0502; in assay [6], 0.0263. Besides, the Bliss excess in assay [7] was 0.0357; in assay [8] it was -0.0339; in [9], -0.0763; in assay [10] it was -0.0203; in [11] it was 0.0607; in assay [12], -0.022. For the same compound, the Bliss excess was -0.0181 in assay [13]; -0.0141 in [14]; -0.0452 in assay [15]; -0.0392 in [16]; 0.0025 in [17]. In addition, the figures for the “combination Emax” value in assay [18], in [19] and in [20] were 0.331, 0.262 and 0.321, respectively.
Take `CN(CCO)CC[C@H](CSc1ccccc1)Nc1ccc(S(=O)(=O)NC(=O)c2ccc(N3CCC([C@@H](O)c4ccccc4-c4ccc(Cl)cc4)CC3)cc2)cc1S(=O)(=O)C(F)(F)F` [AZD4320] + C1CN(CCC1(C(=O)N[C@@H](CCO)C2=CC=C(C=C2)Cl)N)C3=NC=NC4=C3C=CN4 [Capivasertib] (first compound max 1 µM, 7x7, partner max 3 µM): the Bliss excess in assay [1] was -0.0545; in assay [2] it was -0.0135; in [3] it was -0.0436; in assay [4], -0.0734; in assay [5], -0.0503; in assay [6], -0.0261. Also, the Bliss excess in assay [7] is -0.0498; in assay [8] it was -0.042; in assay [9] it was -0.0031; in [10] it was 0.0327; in assay [11] it was 0.0549; in assay [12], -0.0486. The Bliss excess was -0.0479 in [13]; -0.0691 in assay [14]; -0.0329 in assay [15]; 0.0251 in [16]; -0.0419 in [17]. Also, the “combination Emax” value in [18] amounted to 0.237; in assay [19], 0.432; in [20] it was 0.142.
With `CC(=O)c1c(C)c2cnc(Nc3ccc(N4CCNCC4)cn3)nc2n(C2CCCC2)c1=O` [Palbociclib] + CN(CC[C@H](CSC1=CC=CC=C1)NC2=C(C=C(C=C2)S(=O)(=O)NC(=O)C3=CC=C(C=C3)N4CCC(CC4)[C@H](C5=CC=CC=C5C6=CC=C(C=C6)Cl)O)S(=O)(=O)C(F)(F)F)CCO [AZD4320] (first compound max 10 µM, 7x7, partner max 1 µM), the Bliss excess in assay [6] is 0.0028; in assay [7], -0.0622.
In the case of `N#Cc1cnc(Nc2cc(NC[C@H]3CNCCO3)c(C(F)(F)F)cn2)cn1` [SRA737] + Nc1ccn([C@@H]2O[C@H](CO)[C@@H](O)C2(F)F)c(=O)n1 [Gemcitabine] (first compound max 10 µM, 7x7, partner max 0.3 µM), the Bliss excess was -0.0002 in assay [1]; -0.054 in assay [2]; 0.0472 in assay [3]; 0.0099 in assay [4]; -0.0336 in [5]; 0.0613 in [6]. Moreover, the Bliss excess in assay [7] was 0.058; in [8], -0.0375; in assay [9], -0.0087; in assay [11], -0.025; in assay [12] it was -0.0663; in assay [13], 0.0226. For the same compound, the Bliss excess in assay [14] is 0.113; in assay [15], -0.0067; in assay [16], -0.012; in assay [17], -0.0206. For the same compound, the results for the “combination Emax” value in [18], in assay [19] and in assay [20] were 0.78, 0.728 and 0.579, respectively.
On to `C[C@@H](c1ccc2nccn2c1)n1nnc2ncc(-c3cnn(C)c3)nc21` [Savolitinib] + CN(CC[C@H](CSC1=CC=CC=C1)NC2=C(C=C(C=C2)S(=O)(=O)NC(=O)C3=CC=C(C=C3)N4CCC(CC4)[C@H](C5=CC=CC=C5C6=CC=C(C=C6)Cl)O)S(=O)(=O)C(F)(F)F)CCO [AZD4320] (first compound max 1 µM, 7x7, partner max 1 µM), for which the figures for the Bliss excess in [6] and in assay [7] were -0.0154 and -0.0642, respectively.
On to `Cc1nc(Nc2ncc(C(=O)Nc3c(C)cccc3Cl)s2)cc(N2CCN(CCO)CC2)n1` [Dasatinib] + CC(=O)Nc1cccc(-n2c(=O)n(C3CC3)c(=O)c3c(Nc4ccc(I)cc4F)n(C)c(=O)c(C)c32)c1 [Trametinib] (first compound max 2 µM, 7x7, partner max 1 µM), for which the Bliss excess in assay [1] was -0.0294; in assay [3] it was -0.0129; in assay [4], 0.029; in assay [5], 0.024; in assay [6], -0.0487; in [7], -0.0107. Also, the Bliss excess in [8] was -0.04; in [9], -0.076; in assay [10], -0.0217; in [11] it was 0.0027; in assay [12], -0.0578; in assay [13], -0.0332. For the same compound, the Bliss excess is -0.0433 in assay [14], -0.044 in [15], -0.0483 in [16] and 0.0003 in [17]. Also, the “combination Emax” value is 0.555 in assay [18], 0.492 in assay [19] and 0.342 in [20].
`COc1nnc2ccc(N3CCC(c4ccc(OCCN5CCN(C)C(=O)[C@H]5C)cc4)CC3)nn12` [AZD5153] + CN(CC[C@H](CSC1=CC=CC=C1)NC2=C(C=C(C=C2)S(=O)(=O)NC(=O)C3=CC=C(C=C3)N4CCC(CC4)[C@H](C5=CC=CC=C5C6=CC=C(C=C6)Cl)O)S(=O)(=O)C(F)(F)F)CCO [AZD4320] (first compound max 1 µM, 7x7, partner max 1 µM): the Bliss excess was 0.0258 in assay [6] and 0.036 in assay [7].
Regarding `CN(CCO)CC[C@H](CSc1ccccc1)Nc1ccc(S(=O)(=O)NC(=O)c2ccc(N3CCC([C@@H](O)c4ccccc4-c4ccc(Cl)cc4)CC3)cc2)cc1S(=O)(=O)C(F)(F)F` [AZD4320] + CCN(CCO)CCCOc1ccc2c(Nc3cc(CC(=O)Nc4cccc(F)c4)[nH]n3)ncnc2c1 [AZD2811] (first compound max 1 µM, 7x7, partner max 1 µM), the Bliss excess was 0.0932 in [1]; -0.0194 in assay [2]; -0.0048 in [4]; -0.0407 in assay [5]; 0.14 in [6]; 0.0931 in [7]. Besides, the Bliss excess is -0.0081 in [8]; -0.0489 in assay [9]; 0.0345 in [10]; 0.0254 in assay [11]; -0.0342 in [12]; 0.0121 in assay [13]. For the same compound, the Bliss excess is -0.0249 in [14], -0.0619 in assay [15], 0.0384 in assay [16] and -0.0152 in [17]. In addition, the “combination Emax” value in assay [18] worked out at 0.196; in assay [19], 0.454; in assay [20], 0.0639.
